Where “and” joins values, the source holds several entries; their conditions need not be identical. Identical values can stand only once. Toxic doses and inconclusive results are not listed. No stated cut-off is given here; in the data, active means T/C of 150% or more; inactive means T/C below 125%.
Test system: L1210 leukemia ip in BDF1 mice, survival T/C
Test: NCI In Vivo Anticancer Drug Screen. Data for tumor model L1210 Leukemia (intraperitoneal) in B6D2F1 (BDF1) mice
Conditions: endpoint: mean survival time, higher = longer survival
How it was run: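 Value reflects the ratio of survival in compound-treated mice to survival in vehicle-treated controls, with both groups carrying the same transplanted tumor.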

[1] = dose: 100.0 mg/kg/injection, schedule: Q04DX003 (ip), vehicle: Klucel (hydroxypropylcellulose) (HPC)
[2] = dose: 200.0 mg/kg/injection, schedule: Q04DX003 (ip), vehicle: saline with Tween-80

Measured: T/C

C=CC(=O)O
inactive: dose: 0.5 mg/kg/injection, schedule: Q01DX009 (ip), vehicle: saline 101 % of control | dose: 1.0 mg/kg/injection, schedule: Q01DX009 (ip), vehicle: saline 101 % of control | dose: 1.56 mg/kg/injection, schedule: Q01DX009 (ip), vehicle: acetone 104 % of control | dose: 2.0 mg/kg/injection, schedule: Q01DX009 (ip), vehicle: saline 108 % of control | dose: 3.12 mg/kg/injection, schedule: Q01DX009 (ip), vehicle: acetone 102 % of control | dose: 4.0 mg/kg/injection, schedule: Q01DX009 (ip), vehicle: saline 116 % of control | dose: 5.0 mg/kg/injection, schedule: Q01DX001 (ip), vehicle: saline 102 % of control and 93 % of control | dose: 6.25 mg/kg/injection, schedule: Q01DX009 (ip), vehicle: acetone 88 % of control | dose: 10.0 mg/kg/injection, schedule: Q01DX001 (ip), vehicle: saline 108 % of control and 100 % of control | dose: 20.0 mg/kg/injection, schedule: Q01DX001 (ip), vehicle: saline 101 % of control | dose: 25.0 mg/kg/injection, schedule: Q04DX003 (ip), vehicle: Klucel (hydroxypropylcellulose) (HPC) 90 % of control | dose: 50.0 mg/kg/injection, schedule: Q01DX001 (ip), vehicle: carboxymethylcellulose (CMC) 88 % of control and 106 % of control | dose: 50.0 mg/kg/injection, schedule: Q01DX001 (ip), vehicle: saline 95 % of control | dose: 100.0 mg/kg/injection, schedule: Q01DX001 (ip), vehicle: carboxymethylcellulose (CMC) 86 % of control and 95 % of control | dose: 100.0 mg/kg/injection, schedule: Q01DX001 (ip), vehicle: saline 90 % of control and 88 % of control | [1] 89 % of control | dose: 200.0 mg/kg/injection, schedule: Q01DX001 (ip), vehicle: carboxymethylcellulose (CMC) 93 % of control and 101 % of control | dose: 200.0 mg/kg/injection, schedule: Q01DX001 (ip), vehicle: saline 93 % of control and 88 % of control | [2] 87 % of control | dose: 400.0 mg/kg/injection, schedule: Q01DX001 (ip), vehicle: carboxymethylcellulose (CMC) 88 % of control and 106 % of control | dose: 400.0 mg/kg/injection, schedule: Q01DX001 (ip), vehicle: saline 101 % of control and 95 % of control and 102 % of control | dose: 320.0 micrograms/kg/injection, schedule: Q01DX009 (ip), vehicle: saline 96 % of control | dose: 480.0 micrograms/kg/injection, schedule: Q01DX009 (ip), vehicle: saline 102 % of control | dose: 730.0 micrograms/kg/injection, schedule: Q01DX009 (ip), vehicle: saline 106 % of control | dose: 1100.0 micrograms/kg/injection, schedule: Q01DX009 (ip), vehicle: saline 107 % of control

CCC(C)(O)C#Cc1ccc(C)nc1 (centres undefined)
inactive: dose: 100.0 mg/kg/injection, schedule: Q04DX003 (ip), vehicle: saline with Tween-80 97 % of control | [2] 96 % of control | dose: 400.0 mg/kg/injection, schedule: Q04DX003 (ip), vehicle: saline with Tween-80 94 % of control

OC(c1ccccc1)c1nnc(C(O)c2ccccc2)nn1 (centres undefined)
inactive: dose: 100.0 mg/kg/injection, schedule: Q01DX001 (ip), vehicle: Klucel (hydroxypropylcellulose) (HPC) 92 % of control | [1] 94 % of control | dose: 200.0 mg/kg/injection, schedule: Q01DX001 (ip), vehicle: Klucel (hydroxypropylcellulose) (HPC) 95 % of control | dose: 200.0 mg/kg/injection, schedule: Q04DX003 (ip), vehicle: Klucel (hydroxypropylcellulose) (HPC) 93 % of control | dose: 400.0 mg/kg/injection, schedule: Q01DX001 (ip), vehicle: Klucel (hydroxypropylcellulose) (HPC) 95 % of control | dose: 400.0 mg/kg/injection, schedule: Q04DX003 (ip), vehicle: Klucel (hydroxypropylcellulose) (HPC) 100 % of control
